Results: US10799478B2, “Treatment of androgen deprivation therapy associated symptoms” (priority 2014, dated 2020)

Tests used:
ORX Wistar male rats = experiment: In Vivo Study to Explore Direct Antagonist Effect of Example 1 in the Presence of TE; set-up: species or system rat; details: for Seminal Vesicle Wet Weights, Abs(Dif) − LSD / Prostate Weights, Abs(Dif) − LSD: vs TE alone; for Prostate Weight, % Sham / SV Weight, % Sham: 8 weeks
Experimental: Route of administration for all groups except TE is oral. TE is administered subcutaneously. At the end of 8 weeks of daily dosing, rats are euthanized, weighed & tissue harvested. Levator ani, prostates, and seminal vesicles are collected from each animal. Results are plotted as means±SE.

healthy volunteers = experiment: Treatment of healthy volunteers (12 weeks); format: in vivo, human; details: after 12 weeks in healthy volunteers
[1] = ORX + TE 1 mg/kg/d + Example 1 3 mg/kg/d po
[2] = ORX + TE 1 mg/kg/d + Example 1 3 mg/kg/d
[3] = ORX + TE 1 mg/kg/d + Example 1 10 mg/kg/d po
[4] = ORX + TE 1 mg/kg/d + Example 1 10 mg/kg/d
[5] = ORX + TE 1 mg/kg/d + Example 1 30 mg/kg/d

CC(C)OC(=O)N[C@H]1Cc2c(n(Cc3ccccn3)c3ccc(C#N)cc23)C1 (single isomer, unassigned) [Example 1]
Seminal Vesicle Wet Weights, Abs(Dif) − LSD (ORX Wistar male rats; ORX + Example 1 10 mg/kg/d without TE): 1.411
Prostate Weight, % Sham (ORX Wistar male rats; [1]): 42.7 % Sham
SV Weight, % Sham (ORX Wistar male rats; [1]): 53.5 % Sham
Prostate Weights, Abs(Dif) − LSD (ORX Wistar male rats; [2]): −0.11
Seminal Vesicle Wet Weights, Abs(Dif) − LSD (ORX Wistar male rats; [2]): −0.34
Prostate Weight, % Sham (ORX Wistar male rats; [3]): 30.3 % Sham
SV Weight, % Sham (ORX Wistar male rats; [3]): 42.0 % Sham
Prostate Weights, Abs(Dif) − LSD (ORX Wistar male rats; [4]): 0.036
Seminal Vesicle Wet Weights, Abs(Dif) − LSD (ORX Wistar male rats; [4]): 0.078
Prostate Weight, % Sham (ORX Wistar male rats; ORX + TE 1 mg/kg/d + Example 1 30 mg/kg/d po): 31.2 % Sham
Prostate Weights, Abs(Dif) − LSD (ORX Wistar male rats; [5]): 0.025
Seminal Vesicle Wet Weights, Abs(Dif) − LSD (ORX Wistar male rats; [5]): 0.536
prostate wet weight in mg normalized to body weight (ORX Wistar male rats; co-treatment with 1 mg/Kg TE): dose-dependent decrease
seminal vesicle wet weight in mg normalized to body weight, induced by TE alone (ORX Wistar male rats; combination with TE 1 mg/Kg-day and various doses of Example 1): trend in decreasing
hematocrit (healthy volunteers): no significant changes
prostate specific antigen (PSA) (healthy volunteers): no significant changes
